Assay [1] relates to Na^+—K^+ ATPase. The experiment in a line: Na+-K+ ATPase activity of rat brain cortex plasma membrane (Pi liberated from ATP hydrolysis). The format is biochemical. Particulars: for Na+-K+ ATPase activity (free Pi), MLB compared with ouabain: FIG. 2, various MLB or ouabain concentrations. An excerpt: (§1) First, Male Sprague-Dawley (NarII: SD) rats (3-month-old) were purchased from National Laboratory Animal Center (Nankang, Taipei) and raised under specific pathogen-free conditions. Animals were provided with rat chow (Rodent Laboratory Chow 5001, Purina, Mo.) and tap water throughout the studies. The rats received humane care in accordance with the guidelines of a guidebook for the care and use of laboratory animals. The animals were sacrificed by decapitation, and the brain and heart organs of the rats were removed immediately after complete exsanguination.
Next, the plasma membrane was isolated from the rat brain and heart at 4° C. The brain and heart homogenate were prepared respectively with homogenized plasma membrane in 10-20 volumes of […] sucrose solution containing 5.0 mM 4-(2-hydroxyethyl)-1-piperazineethanesulfonic acid (HEPES) and 1.0 mM EDTA, pH7.5. Then, the brain or heart homogenate was centrifuged at 1000×g for 10 min, and kept the resultant supernatant for further centrifuge at 17000×g for 30 min to obtain a crude plasma membrane fraction.
Then, the fraction was washed and suspended twice in 0.32 M sucrose HEPES-buffer, which was subjected to a discontinuous sucrose density gradient consisting of successive layers of […], and centrifuged at 63000×g for 1 hour. The plasma membrane was collected at the interface between […] sucrose to be further suspended in 0.32 M sucrose solution for enzyme assays within 2 hours.
Na^+—K^+ ATPase activity was determined by measuring the amount of inorganic phosphate (Pi) liberated from ATP hydrolysis.
First, commercial Na^+—K^+ ATPase from porcine cerebral cortex (Sigma, 0.3 units/mg) or a purified plasma membrane fraction incorporated into a reaction mixture of 1 ml containing 3 mM ATP, 5 mM MgCl2, 80 mM NaCl, 20 mM KCl, and 40 mM Tris-HCl, pH7.4, was prepared. The enzymatic reaction was terminated 15 min after Na^+—K^+ ATPase incorporation by adding 200 μl of 30% (WN) trichloroacetic acid.
After centrifugation at 6000 rpm for 15 min, supernatant of 500 μl measured the inorganic phosphate using spectrophotometric methods. Enzyme activity was expressed as μmol Pi liberated from ATP by 1 mg of Na^+—K^+ ATPase during 1 hour. Protein content was quantified using a Bradford protein assay kit (Sigma). For the observation of inhibitory effects on Na^+—K^+ ATPase activity, ouabain or MLB of various concentrations was incubated with commercial Na^+—K^+ ATPase or the purified plasma membrane fraction at 37° C. for 10 min prior to incorporation into the reaction mixture.

Assay [2] deals with Na^+—K^+ ATPase. The experiment in a line: Na+-K+ ATPase activity of rat myocardium (cardiac) cell membrane (Pi liberated from ATP hydrolysis). The format is biochemical. Particulars: FIG. 5, various MLB concentrations.
From the text: as §1
Next, the plasma membrane was isolated from the rat brain and heart at 4° C. The brain and heart homogenate were prepared respectively with homogenized plasma membrane in 10-20 volumes of […] sucrose solution containing 5.0 mM 4-(2-hydroxyethyl)-1-piperazineethanesulfonic acid (HEPES) and 1.0 mM EDTA, pH7.5. […]
Na^+—K^+ ATPase activity was determined by measuring the amount of inorganic phosphate (Pi) liberated from ATP hydrolysis. […]
After centrifugation at 6000 rpm for 15 min, supernatant of 500 μl measured the inorganic phosphate using spectrophotometric methods. Enzyme activity was expressed as μmol Pi liberated from ATP by 1 mg of Na^+—K^+ ATPase during 1 hour. Protein content was quantified using a Bradford protein assay kit (Sigma). […]

For assay [3], the system named is cerebral hypoxia caused by sodium nitrite. The assay is described as follows: Rat survival test after sodium nitrite (cerebral hypoxia). Particulars: FIG. 6, sodium nitrite 225 mg/kg. The format is in vivo. On the procedure: Sodium nitrite will trigger the oxyhemoglobin converts into methemoglobin to cause the hypoxia and cell infract.
3-4 week old rats (about 20˜22 g) were randomly divided into three sample groups and one control group, and each group has 5 rats. […] After feeding for 7 days, one hour later of the final feeding, each rat was injected with sodium nitrite (225 mg/kg). Then count time on the spot to record the survival time of rats.

Assay [4] concerns cerebral infarct after ischemia-reperfusion. The experiment in a line: Focal cerebral ischemia-reperfusion (CCA/MCA occlusion) infarct test in gerbils. The assay is classed as in vivo, gerbil. Particulars: for cell infarct volume vs control: FIG. 7; for cell infarct size vs control: FIG. 8.

Regarding `O=C(/C=C/c1ccc(O)c2c1[C@H](C(=O)O[C@H](Cc1ccc(O)c(O)c1)C(=O)[O-])[C@@H](c1ccc(O)c(O)c1)O2)O[C@H](Cc1ccc(O)c(O)c1)C(=O)[O-].[Mg+2]` [MLB, magnesium lithospermate B], the “Na+-K+ ATPase activity (inorganic phosphate liberated from ATP hydrolysis) with increasing concentration” value in assay [1] (FIG. 1, rat brain cortex, various MLB concentrations, 37° C. 10 min preincubation) is on record as “the measured free inorganic phosphate (Pi) decreases with increased MLB concentration”. In addition, the “Na+-K+ ATPase activity (free Pi), MLB compared with ouabain” value in assay [1] (rat brain cortex) is recorded as “the inhibitory behavior of MLB is consistent with the ouabain”. Moreover, in assay [1] (FIG. 4, rat brain cortex cell membrane, various MLB concentrations), the “Na+-K+ ATPase activity (free Pi) of brain cortex cell membrane” value was “the MLB is able to inhibit the Na^+—K^+ ATPase activity of the cortex cell membrane”. Further, the “Na+-K+ ATPase activity (free Pi) of cardiac cell membrane” value in assay [2] is listed as “MLB is able to inhibit the Na^+—K^+ ATPase activity of cardiac cell membranes”. Besides, the “survival rate vs control after sodium nitrite” value in assay [3] (MLB 3 mg/Kg for 7 days) is listed as “significant (p<0.05) increase (two folds)”; in assay [3] (MLB 9 mg/Kg for 7 days), “significant (p<0.05) different from the control group”; in assay [3] (MLB 18 mg/Kg for 7 days), “significant (p<0.05) different from the control group”. The “cell infarct volume vs control” value is recorded as “effective repression of cell infarct” in assay [4] (MLB 1.5 mg/Kg intraperitoneally 30 min before reperfusion) and “significant (p<0.01) difference from the control group” in assay [4] (MLB 3 mg/Kg intraperitoneally 30 min before reperfusion). Also, the entries for the “cell infarct size vs control” value in assay [4] (MLB 0.3 mg/Kg forced oral fed 30 min after reperfusion) and in assay [4] (MLB 3 mg/Kg forced oral fed 30 min after reperfusion) were “effective repression of cell infarct” and “significant (p<0.01) difference from the control group”, respectively.
With `C[C@@H]1O[C@@H](O[C@H]2C[C@@H](O)[C@]3(CO)[C@H]4[C@H](O)C[C@]5(C)[C@@H](C6=CC(=O)OC6)CC[C@]5(O)[C@@H]4CC[C@]3(O)C2)[C@H](O)[C@H](O)[C@H]1O` [ouabain, reference compound], in assay [1] (rat brain cortex), the “Na+-K+ ATPase activity (free Pi), MLB compared with ouabain” value is on record as “the amount of free inorganic phosphate (Pi) is dependent on the raised inhibitor (MLB or ouabain) dosage”.

(Values after US20070293459A1, “Method for Inhibiting Cellular Na+-K+ ATPase Activity” (JASON LIFE TECH INC. LTD., priority 2006, published 2007).)
